The text below walks through data of patent US5480899A, “Oxazolidine derivatives and pharmaceutically acceptable salts thereof” (Taiho Pharmaceutical Co., Ltd., priority 1992, dated 1996).

The test system of test [1] is sterol biosynthesis system (rat liver slices). Nature of the test: Effects on sterol biosynthesis in rat liver slices ([1-14C] acetic acid incorporation). Format: cell-based, male Wistar rat. Particulars: 37° C., 2 hours, radioactivity of sterol fraction vs control. The method, then: (§1) Effects on sterol and fatty acid biosynthesis systems obtained from a rat liver slices
(§2) Pharmacological tests were carried out according to the procedure mentioned below, referring to the following document: Endo, A., Tsujita, Y., Kuroda, M. and Tanzawa, K., Eur. J. Biochem., 77, 31-36 (1977).
(§3) The liver was extirpated from a male Wistar rat (body weight: about 200 g) immediately after sacrifice by decapitation, and sufficiently perfused with ice-cold Krebs-Ringer bicarbonate buffer solution. The liver slices (100 mg) were added to 1 ml of Krebs-Ringer bicarbonate buffer solution containing [1-^14 C] acetic acid (2 μci/μmol) and one of test compounds adjusted to various concentrations, and the reaction was carried out at 37° C. for 2 hours in 95% O2 -5% CO2 gas mixture. After cooling the reaction mixture, 2 ml of petroleum ether was added thereto to extract the sterol fraction with shaking. The extract was concentrated and 1 ml of 1% digitonin solution was added thereto. After standing, the mixture was centrifuged. The sterol fraction obtained as the sediment was washed several times with an organic solvent and dissolved in 1 ml of acetic acid. Subsequently, radioactivity of the sterol fraction was measured. Then the concentration of the test compound (IC50) was determined at which the radioactivity was inhibited by 50% compared with the radioactivity observed in the control group wherein the test compounds were not used.

Test [2] has as its system fatty acid biosynthesis system (rat liver slices). Nature of the test: Effects on fatty acid biosynthesis in rat liver slices ([1-14C] acetic acid incorporation). The class given is cell-based, male Wistar rat. Particulars: 37° C., 2 hours, radioactivity of fatty acid fraction vs control. The method, then: as §1, §2, §3
In a similar manner, the radioactivity of fatty acid fraction was determined which was obtained by treating, with hydrochloric acid, the lower layer of the petroleum ether mentioned in the above procedure.

The test system of test [3] is serum lipid (triglyceride and cholesterol). The experiment in a line: Rate of decrease in serum lipid (triglyceride and cholesterol) in rats after 14-day oral administration. The class given is in vivo, male Sprague-Dawley rats. The following applies: 300 mg/kg orally everyday for 14 days; 24 hours after last administration; vs control group (0.5% HPMC). On the procedure:
Male Sprague-Dawley rats (body weight: about 130 g) were preliminarily bred for one week, and divided into groups, each group consisting of five rats. Each of the test compounds was suspended in a 0.5% hydroxy-propylmethylcellulose (HPMC) aqueous solution, and the suspensions were orally administered to the rats at a dose of 300 mg/kg at 9:00 a.m. everyday for 14 days. […] The blood was allowed to stand and centrifuged to obtain serum. Lipid (triglyceride and cholesterol) in the obtained serum was measured by the enzymic method using an autoanalyzer.
Pharmacological activities of the test compounds were determined as the rate of decrease (%) in serum lipid compared with the control group to which only 0.5% aqueous HPMC solution was administered.

As to `O=C(O)c1ccc(OCC2CN(c3ccc(C(F)(F)F)cc3)C(=O)O2)cc1` (stereo not drawn) [Compound 101], the IC50 in test [1] was found to be 4.8 µM; in test [2] it was 3.17 µM.
The like results for `O=C(O)c1ccc(OC[C@@H]2CN(c3ccc(Cl)cc3)C(=O)O2)cc1` [Compound 165] were, in that order, 1.15 µM and 1.09 µM.
In the same order, the values of `Cc1ccc(N2CC(COc3ccc(C(=O)O)cc3)OC2=O)cc1` (stereo not drawn) [Compound 83] are 5.74 µM and 2.89 µM.
For `O=C(O)c1ccc(OCC2CN(c3ccc(Br)cc3)C(=O)O2)cc1` (stereo not drawn) [Compound 93], the IC50 in test [1] was 3.23 µM; in test [2] it was 1.55 µM.
In the same order, the values of `O=C(O)c1ccc(OC[C@H]2CN(c3ccc(Cl)cc3)C(=O)O2)cc1` [Compound 149] are 3.36 µM and 1.99 µM.
In the same order, the values of `Cc1ccc(N2CC(COc3ccc(CO)cc3)OC2=O)cc1` (stereo not drawn) [Compound 175, 4-[3-(4-tolyl)-2-oxooxazolidin-5-yl]methoxybenzyl alcohol] are 4.8 µM and 2.7 µM.
For the molecule `O=C(O)c1ccc(OCC2CN(c3ccc(Br)cc3F)C(=O)O2)cc1` (stereo not drawn) [Compound 100], in test [3], the “Rate of decrease in total cholesterol in serum” value is recorded as 32.4% and the “Rate of decrease in triglyceride in serum” value was 62.9%.
With `O=C(O)CCc1ccc(OCC2CN(c3ccc(Cl)cc3)C(=O)O2)cc1` (stereo not drawn) [Compound 193], the IC50 in test [1] amounted to 16.4 µM; in test [2], 3.8 µM.
The like results for `O=C(O)/C=C/c1ccc(OCC2CN(c3ccc(Cl)cc3)C(=O)O2)cc1` (stereo not drawn) [Compound 183] were, in that order, 17.4 µM and 5.7 µM.
The like results for `O=C(O)c1ccc(OC[C@H]2CN(c3ccc(C(F)(F)F)cc3)C(=O)O2)cc1` [Compound 147] were, in that order, 8.08 µM and 4.78 µM.
Turning to `O=C(O)c1ccc(OCC2CN(c3ccc(OC(F)(F)F)cc3)C(=O)O2)cc1` (stereo not drawn) [Compound 108], in test [3], the “Rate of decrease in total cholesterol in serum” value was 50.4% and the “Rate of decrease in triglyceride in serum” value is 83.0%.
As to `O=C(O)c1ccc(OCC2CN(c3ccccc3)C(=S)O2)cc1` (stereo not drawn) [Compound 171, 4-(3-phenyl-2-oxazolidinethion-5-yl)methoxybenzoic acid], the figures for the IC50 in test [1] and in test [2] were 34.5 µM and 9.81 µM, respectively.
In the same order, the values of `O=C1OC(COc2ccc(CCCO)cc2)CN1c1ccc(Cl)cc1` (stereo not drawn) [Compound 194, 3-{4-[3-(4-chlorophenyl)-2-oxooxazolidin-5-yl]methoxyphenyl}propyl alcohol] are 4.8 µM and 4 µM.
In the case of `COc1ccc(N2C[C@@H](COc3ccc(C(=O)O)cc3)OC2=O)cc1` [Compound 164], the values for the IC50 in test [1] and in test [2] were 0.84 µM and 1.23 µM, respectively.
In the same order, the values of `O=C(O)c1ccc(OCC2CN(c3ccc([N+](=O)[O-])cc3)C(=O)O2)cc1` (stereo not drawn) [Compound 81, 4-[3-(4-nitrophenyl)-2-oxooxazolidin-5-yl]methoxybenzoic acid] are 3.79 µM and 1.3 µM.
The like results for `O=Cc1ccc(OCC2CN(c3ccc(Br)cc3F)C(=O)O2)cc1` (stereo not drawn) [Compound 8] were, in that order, 6.4 µM and 2.9 µM.
The like results for `COc1ccc(N2CC(COc3ccc(C=O)cc3)OC2=O)cc1` (stereo not drawn) [Compound 1, 4-[3-(4-methoxyphenyl)-2-oxooxazolidin-5-yl]methoxybenzaldehyde] were, in that order, 10.2 µM and 5.6 µM.
`O=C(O)c1ccc(OCC2COC(=O)N2c2ccccc2)cc1` (stereo not drawn) [Compound 180, 4-(3-phenyl-2-oxooxazolidin-4-yl)methoxybenzoic acid]: the values for the IC50 in test [1] and in test [2] were 7.1 µM and 33.7 µM, respectively.
The like results for `O=C1OC(COc2ccc(CCCO)cc2)CN1c1ccccc1` (stereo not drawn) [Compound 195, 3-[4-(3-phenyl-2-oxooxazolidin-5-yl)methoxyphenyl]propyl alcohol] were, in that order, 23.2 µM and 7.3 µM.
In the same order, the values of `Cc1ccc(CN2CC(COc3ccc(C(=O)O)cc3)OC2=O)cc1` (stereo not drawn) [Compound 130] are 29.5 µM and 14.8 µM.
As to `O=C(O)c1ccc(OCC2CN(c3ccc(Cl)cc3Cl)C(=O)O2)cc1` (stereo not drawn) [Compound 98], in test [3], the “Rate of decrease in total cholesterol in serum” value is reported as 26.8% and the “Rate of decrease in triglyceride in serum” value turned out to be 65.5%.

The term IC50 denotes the midpoint of a concentration-inhibition curve.
